# Data published in the supplement of paper PMC11208160.
# Assay: recombinant UMI read abundance after kanamycin selection (control-corrected) (log10(CPM+1)); higher = more efficient recombination; extreme values may be limits of the assay; sequences stand for … in AGTGCAGAGAAAATCGGCCAGTTTTCTCTGCCTGCAGTCCGCATGCCGTGGGACCCCTTGGGTTCTAACCTGTTGCCTAGATTTATGCAGCGGACTGCCTTTCTCCCAAAGTGATAAACCGG…AGGTTGGTTTCACT; site = the 11-nt donor
# In short: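 Counts of recombinant UMIs were reported as log10(CPM+1). Before that, they were converted to CPM, averaged over replicates and scaled using control-derived factors. They came from PCR across the donor–target junction after Escherichia coli carrying the pair library and target plasmid was plated on IPTG (0.07 mM) plus kanamycin, or unselected, in two replicates each.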
# 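Note: IS621 bridge recombinase in Escherichia coli cells against a fixed T5 target plasmid.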
row,Sequence,recombinant UMI read abundance (log10)
1,GCCACGCCATGGACCGGTTTTCCCGGTAATCCGTATTTGCA (site GCCACGCCTTA),0
2,GCCACGCCATGGACCGGTTTTCCCGGTAATCCGTATTTGCA (site GCCACGCCTTC),0.0237
3,GCCACGCCATGGACCGGTTTTCCCGGTAATCCGTATTTGCA (site GCCACGCCTTG),1.36
4,GCCACGCCATGGACCGGTTTTCCCGGTAATCCGTATTTGCA (site GCCACGCCTTT),0.0202
5,GCCACGCCATGGACCGGTTTTCCCGGTAATCCGTATTTGGA (site GCCACGCCTTA),0.00593
6,GCCACGCCATGGACCGGTTTTCCCGGTAATCCGTATTTGGA (site GCCACGCCTTC),0.0144
7,GCCACGCCATGGACCGGTTTTCCCGGTAATCCGTATTTGGA (site GCCACGCCTTG),0
8,GCCACGCCATGGACCGGTTTTCCCGGTAATCCGTATTTGGA (site GCCACGCCTTT),0.00923
9,GCCACGCCATGGACCGGTTTTCCCGGTAATCCGTATTTGTC (site GCCACGCCTAA),0
10,GCCACGCCATGGACCGGTTTTCCCGGTAATCCGTATTTGTC (site GCCACGCCTCA),0.015
11,GCCACGCCATGGACCGGTTTTCCCGGTAATCCGTATTTGTC (site GCCACGCCTGA),1.03
12,GCCACGCCATGGACCGGTTTTCCCGGTAATCCGTATTTGTC (site GCCACGCCTTA),0.0128
13,GCCACGCCATGGACCGGTTTTCCCGGTAATCCGTATTTGTG (site GCCACGCCTAA),0.0114
14,GCCACGCCATGGACCGGTTTTCCCGGTAATCCGTATTTGTG (site GCCACGCCTCA),0.0225
15,GCCACGCCATGGACCGGTTTTCCCGGTAATCCGTATTTGTG (site GCCACGCCTGA),0
16,GCCACGCCATGGACCGGTTTTCCCGGTAATCCGTATTTGTG (site GCCACGCCTTA),0.0106
17,GCCACGTCATGGACCGGTTTTCCCGGTAATCCGTATTTGCA (site GCCACGTCTTG),2.76
18,GCCCACACATGGACCGGTTTTCCCGGTAATCCGTATTTGTA (site ACCCACACTTA),1.08
19,GCCCACACATGGACCGGTTTTCCCGGTAATCCGTATTTGTA (site CCCCACACTTA),1.37
20,GCCCACACATGGACCGGTTTTCCCGGTAATCCGTATTTGTA (site GCCCACACTTA),1.78
21,GCCCACACATGGACCGGTTTTCCCGGTAATCCGTATTTGTA (site TCCCACACTTA),1.02
22,GCCCACCCATGGACCGGTTTTCCCGGTAATCCGTATTTGTT (site GACCACCCTAA),0.0217
23,GCCCACCCATGGACCGGTTTTCCCGGTAATCCGTATTTGTT (site GCCCACCCTAA),0.051

row,Sequence,recombinant UMI read abundance (log10)
1,GCCCACCCATGGACCGGTTTTCCCGGTAATCCGTATTTGTT (site GGCCACCCTAA),0.0315
2,GCCCACCCATGGACCGGTTTTCCCGGTAATCCGTATTTGTT (site GTCCACCCTAA),0.0135
3,GCCCACGCATGGACCGGTTTTCCCGGTAATCCGTATTTGGA (site GCCCACGCTTC),0.94
4,GCCCGAGCATGGACCGGTTTTCCCGGTAATCCGTATTTGGA (site GCCCGAGCTTC),0.73
5,GCCCGCACATGGACCGGTTTTCCCGGTAATCCGTATTTGTG (site GCCCGCACTCA),0.0672
6,GCCCGCTCATGGACCGGTTTTCCCGGTAATCCGTATTTGAG (site GCCCGCTCTCT),0.704
7,GCCCGTTCATGGACCGGTTTTCCCGGTAATCCGTATTTGAG (site GCCCGTTCTCT),2.23
8,GCCCTCCCATGGACCGGTTTTCCCGGTAATCCGTATTTGTG (site GCCCTCCCTCA),0.0428
9,GCCCTTTCATGGACCGGTTTTCCCGGTAATCCGTATTTGCT (site GCCCTTTCTAG),1.67
10,GCCGAACCATGGACCGGTTTTCCCGGTAATCCGTATTTGGG (site GCCGAACCTCC),0.0289
11,GCCGATGCATGGACCGGTTTTCCCGGTAATCCGTATTTGGC (site GCCGATGCTGC),0.846
12,GCCGCGCCATGGACCGGTTTTCCCGGTAATCCGTATTTGTA (site GCCACGCCTTA),0.00924
13,GCCGCGCCATGGACCGGTTTTCCCGGTAATCCGTATTTGTA (site GCCCCGCCTTA),0.00531
14,GCCGCGCCATGGACCGGTTTTCCCGGTAATCCGTATTTGTA (site GCCGCGCCTTA),0.234
15,GCCGCGCCATGGACCGGTTTTCCCGGTAATCCGTATTTGTA (site GCCTCGCCTTA),0.18
16,GCCGCTCCATGGACCGGTTTTCCCGGTAATCCGTATTTGGT (site GCCGCTCCTAC),0.0147
17,GCCGGTCCATGGACCGGTTTTCCCGGTAATCCGTATTTGCA (site ACCGGTCCTTG),0
18,GCCGGTCCATGGACCGGTTTTCCCGGTAATCCGTATTTGCA (site CCCGGTCCTTG),0
19,GCCGGTCCATGGACCGGTTTTCCCGGTAATCCGTATTTGCA (site GCCGGTCCTTG),0
20,GCCGGTCCATGGACCGGTTTTCCCGGTAATCCGTATTTGCA (site TCCGGTCCTTG),0
21,GCCGTATCATGGACCGGTTTTCCCGGTAATCCGTATTTGCA (site ACAGTATCTTG),2.87
22,GCCGTATCATGGACCGGTTTTCCCGGTAATCCGTATTTGCA (site GCCGTATCTTG),2.22
23,GCCTAAACATGGACCGGTTTTCCCGGTAATCCGTATTTGGT (site GCCTAAACTAC),1.07

row,Sequence,recombinant UMI read abundance (log10)
1,GCCTAATCATGGACCGGTTTTCCCGGTAATCCGTATTTGGC (site GCCTAATCTGC),0.963
2,GCCTATCCATGGACCGGTTTTCCCGGTAATCCGTATTTGAC (site GCCTATCCTGT),0
3,GCCTCGCCATGGACCGGTTTTCCCGGTAATCCGTATTTGGT (site GCCTCGCCTAC),0
4,GCCTCTACATGGACCGGTTTTCCCGGTAATCCGTATTTGCC (site GCCTCTACTGG),1.37
5,GCCTGGCCATGGACCGGTTTTCCCGGTAATCCGTATTTGCT (site GCCTGGCCTAG),0
6,GCCTGTGCATGGACCGGTTTTCCCGGTAATCCGTATTTGAC (site GCCTGTGCTGT),0.472
7,GCGAAAACATGGACCGGTTTTCCCGGTAATCCGTATTTGCA (site GCGAAAACTAG),0
8,GCGAAAACATGGACCGGTTTTCCCGGTAATCCGTATTTGCA (site GCGAAAACTCG),1.4
9,GCGAAAACATGGACCGGTTTTCCCGGTAATCCGTATTTGCA (site GCGAAAACTGG),0
10,GCGAAAACATGGACCGGTTTTCCCGGTAATCCGTATTTGCA (site GCGAAAACTTG),0.929
11,GCGAAATCATGGACCGGTTTTCCCGGTAATCCGTATTTGCT (site GCGAAAACTAG),0
12,GCGAAATCATGGACCGGTTTTCCCGGTAATCCGTATTTGCT (site GCGAAACCTAG),0
13,GCGAAATCATGGACCGGTTTTCCCGGTAATCCGTATTTGCT (site GCGAAAGCTAG),0
14,GCGAAATCATGGACCGGTTTTCCCGGTAATCCGTATTTGCT (site GCGAAATCTAG),1.62
15,GCGAACCCATGGACCGGTTTTCCCGGTAATCCGTATTTGAT (site GCGAACCCTAT),0.903
16,GCGAACCCATGGACCGGTTTTCCCGGTAATCCGTATTTGGG (site GCGAAACCTCC),0.013
17,GCGAACCCATGGACCGGTTTTCCCGGTAATCCGTATTTGGG (site GCGAACCCTCC),0.0373
18,GCGAACCCATGGACCGGTTTTCCCGGTAATCCGTATTTGGG (site GCGAAGCCTCC),0.00885
19,GCGAACCCATGGACCGGTTTTCCCGGTAATCCGTATTTGGG (site GCGAATCCTCC),0.0113
20,GCGAAGACATGGACCGGTTTTCCCGGTAATCCGTATTTGCT (site GCGAAAACTAG),1.01
21,GCGAAGACATGGACCGGTTTTCCCGGTAATCCGTATTTGCT (site GCGAACACTAG),0.298
22,GCGAAGACATGGACCGGTTTTCCCGGTAATCCGTATTTGCT (site GCGAAGACTAG),1.92
